Source: US8518678B2, “Strain comprising increased expression of a CFA coding region for butanol production” (Butamax(TM) Advanced Biofuels LLC, priority 2007, dated 2013)
Where two headings read alike, the source gives them in different places.

Legend:
[1] = test system: butanol non-producing bacterial cells; experiment: Feeding with fatty acids followed by screening for butanol tolerance; format: cell-based; conditions: fed to cells; among about ten different fatty acids tested
Description: The discovery came from results of studies on feeding butanol non-producing bacterial cells with different fatty acids followed by screening for butanol tolerance.

[2] = test system: Lactobacillus plantarum PN2001; conditions: shake flask; for PN2001, % Growth inhibition: semi-synthetic LAB medium pH7; for PN2001 (cfa1 plasmid) μ: semi-synthetic LAB medium pH7, 30° C
[3] = test system: Lactobacillus plantarum PN2014; conditions: shake flask; for PN2014, % Growth inhibition: semi-synthetic LAB medium pH7; for PN2014 (control plasmid) μ: semi-synthetic LAB medium pH7, 30° C
L. plantarum PN2001 = experiment: Bioscreen-C growth analysis in MRS medium, PN2001 (cfa1); format: cell-based, Lactobacillus plantarum; conditions: strain PN2001 (cfa1)
Experimental: (§1) For Bioscreen-C (instrument purchased from Growth Curves USA, Piscataway N.J.) growth curves, the cultures were grown overnight in MRS medium containing 1 μg/ml erythromycin at 30° C. The next day, these were diluted to OD600 of 0.1 in the wells of the Bioscreen plate with MRS medium containing 1 μg/ml erythromycin and either 2.25% (w/v) isobutanol or no isobutanol at 30° C.
(§2) L. plantarum strains PN2001, PN2003, PN2005, PN2010, PN2012, and PN2014 were tested for growth in a Bioscreen-C growth curve machine in the presence of isobutanol as described in General Methods. These growth assays were conducted in MRS medium, which contains 1 g/L polysorbate 80 (commercially also known as Tween® 80) that serves as a source of oleic acid. Erythromycin at 1 μg/ml was added to the medium to maintain the plasmids. It is well known that L. plantarum grown in MRS medium incorporates oleic acid into membrane lipids (Johnsson et al. (1995) Appl. Environ. Microbiol. 61:4497-4499).

L. plantarum PN2003 = experiment: Bioscreen-C growth analysis in MRS medium, PN2003 (cfa1); format: cell-based, Lactobacillus plantarum; conditions: strain PN2003 (cfa1), 2.25% isobutanol
Experimental: as §1, §2

L. plantarum PN2005 = experiment: Bioscreen-C growth analysis in MRS medium, PN2005 (cfa2); format: cell-based, Lactobacillus plantarum; conditions: strain PN2005 (cfa2)
Experimental: as §1, §2

L. plantarum PN2010 = experiment: Bioscreen-C growth analysis in MRS medium, PN2010 (cfa2); format: cell-based, Lactobacillus plantarum; conditions: strain PN2010 (cfa2)
Experimental: as §1, §2

L. plantarum PN2012 = experiment: Bioscreen-C growth analysis in MRS medium, PN2012 (control); format: cell-based, Lactobacillus plantarum; conditions: strain PN2012 (no gene on plasmid)
Experimental: as §1, §2

L. plantarum PN2014 = experiment: Bioscreen-C growth analysis in MRS medium, PN2014 (control); format: cell-based, Lactobacillus plantarum; conditions: strain PN2014 (no gene on plasmid)
Experimental: as §1, §2

E. coli strain DPD4655 = experiment: Bioscreen-C growth in LB medium, DPD4655 (cfa overexpression); format: cell-based; conditions: 3 hour and 15 minute time point; for OD600 (+/− st dev): LB medium, 37° C
Experimental: (§3) E. coli strains DPD4655 and DPD4658 were grown overnight in LB medium containing 100 μg/ml ampicillin at 37° C. The next day, these were diluted to OD600 of 0.1 in the wells of a Bioscreen-C plate (instrument and plates purchased from Growth Curves USA, Piscataway N.J.) with LB medium and either 0.4%, 0.8% (w/v) isobutanol or no isobutanol at 37° C. in triplicate. OD was monitored and the OD at the 3 hour and 15 minute time point was used to calculate the % of growth in the presence of isobutanol as compared with its absence, given in Table 15.

E. coli strain DPD4658 = experiment: Bioscreen-C growth in LB medium, DPD4658 (control lacZ overexpression); format: cell-based; conditions: 3 hour and 15 minute time point; for OD600 (+/− st dev): LB medium, 37° C
Experimental: as §3

[4] = test system: Lactobacillus plantarum PN1310; experiment: Change in OD600 in S36 medium, PN1310 (spoT mutant, vector); format: cell-based; conditions: 3% isobutanol
Description: (§4) The purpose of this Example was to test the effect of a combination of cfa1 overexpression and spoT mutation on the isobutanol tolerance of Lactobacillus plantarum. To create a strain with both gene modifications, pFP996-atpB-cfa1 (described in Example 1; also called pFP996-1)) was transformed into the MS0280 strain (described in Example 4; also called PN1300) creating strain PN1312. For a control strain, pFP996 (described in Example 1) was transformed into MS0280 creating PN1310. Strain PN1312, which contained a multicopy expression plasmid with cfa1, was compared to strain PN1310, which contained the vector control.
(§5) The growth of the strains over time was followed, and tolerance compared as follows. The strains were cultured in S36 medium (contains 10 mM ammonium sulfate, 5 mM potassium phosphate buffer, pH 6.0, 50 mM MES, pH 6.0, 2 mM MgCl2, 0.7 mM CaCl2, 50 μM MnCl2, 1 μM FeCl3, 1 μM ZnCl2, 1.72 μM CuCl2, 2.53 μM CoCl2, 2.42 μM Na2MoO4, 2 μM thiamine hydrochloride, 0.01 M glucose, 0.2% yeast extract and 0.01% casamino acids) overnight at 30° C. under anaerobic conditions. The next day, cultures were started from the overnight cultures in fresh medium, with initial OD600 values of 0.18. These cultures were incubated at 30° C. under anaerobic conditions for 4 hours. During this time, PN1310 reached an OD600 of 0.83, and PN1312 reach an OD600 of 0.61. […]

[5] = test system: Lactobacillus plantarum PN1312; experiment: Change in OD600 in S36 medium, PN1312 (spoT mutant, cfa1); format: cell-based; conditions: 3% isobutanol
Description: as §4, §5

[6] = test system: Lactobacillus plantarum PN2001; experiment: microbe, parasite or virus in culture; conditions: Lactiplantibacillus plantarum, PN2001, pH 7, read-out: PN2001, % Growth inhibition
[7] = test system: Lactobacillus plantarum PN2014; experiment: microbe, parasite or virus in culture; conditions: Lactiplantibacillus plantarum, PN2014, pH 7, read-out: PN2014, % Growth inhibition
[8] = MRS medium (source of oleic acid), 30° C

## CCCCCCCC[C@@H]1C[C@@H]1CCCCCCCC(=O)O [dihydrosterculic acid]
[1]
  effect of feeding on butanol tolerance: increased butanol tolerance

## CCC(C)O (stereo not shown) [2-butanol]
[2]; 2-butanol 3.5% w/v
  PN2001, % Growth inhibition: 54%
  PN2001 (cfa1 plasmid) μ: 0.132 h⁻¹
[2]; 2-butanol 4.0% w/v
  PN2001, % Growth inhibition: 56%
  PN2001 (cfa1 plasmid) μ: 0.125 h⁻¹
[2]; 2-butanol 4.25% w/v
  PN2001, % Growth inhibition: 61%
  PN2001 (cfa1 plasmid) μ: 0.111 h⁻¹
[2]; 2-butanol 4.5% w/v
  PN2001, % Growth inhibition: 62%
  PN2001 (cfa1 plasmid) μ: 0.108 h⁻¹
[2]; 2-butanol 4.75% w/v
  PN2001, % Growth inhibition: 76%
  PN2001 (cfa1 plasmid) μ: 0.068 h⁻¹
[2]; 2-butanol 5.0% w/v
  PN2001, % Growth inhibition: 73%
  PN2001 (cfa1 plasmid) μ: 0.078 h⁻¹
[3]; 2-butanol 3.5% w/v
  PN2014, % Growth inhibition: 48%
  PN2014 (control plasmid) μ: 0.153 h⁻¹
[3]; 2-butanol 4.0% w/v
  PN2014, % Growth inhibition: 59%
  PN2014 (control plasmid) μ: 0.123 h⁻¹
[3]; 2-butanol 4.25% w/v
  PN2014, % Growth inhibition: 47%
  PN2014 (control plasmid) μ: 0.158 h⁻¹
[3]; 2-butanol 4.5% w/v
  PN2014, % Growth inhibition: 79%
  PN2014 (control plasmid) μ: 0.061 h⁻¹
[3]; 2-butanol 4.75% w/v
  PN2014, % Growth inhibition: 89%
  PN2014 (control plasmid) μ: 0.034 h⁻¹
[3]; 2-butanol 5.0% w/v
  PN2014, % Growth inhibition: 100%
  PN2014 (control plasmid) μ: 0.00 h⁻¹

## CC(C)CO [isobutanol]
L. plantarum PN2001; 2.25% isobutanol, MRS medium
  % Growth inhibition: 32%
L. plantarum PN2001; [8]
  μ (2.25% isobutanol): 0.32 h⁻¹
L. plantarum PN2003
  % Growth inhibition: 34%
L. plantarum PN2005; 2.25% isobutanol, MRS medium
  % Growth inhibition: 39%
L. plantarum PN2005; [8]
  μ (2.25% isobutanol): 0.31 h⁻¹
L. plantarum PN2010; 2.25% isobutanol, MRS medium
  % Growth inhibition: 39%
L. plantarum PN2010; [8]
  μ (2.25% isobutanol): 0.33 h⁻¹
L. plantarum PN2012; 2.25% isobutanol, MRS medium
  % Growth inhibition: 51%
L. plantarum PN2012; [8]
  μ (2.25% isobutanol): 0.20 h⁻¹
L. plantarum PN2014; 2.25% isobutanol, MRS medium
  % Growth inhibition: 42%
L. plantarum PN2014; [8]
  μ (2.25% isobutanol): 0.22 h⁻¹
E. coli strain DPD4655; isobutanol 0.4% (w/v)
  % OD +isobutanol/−isobutanol: 72%
  OD600 (+/− st dev): 0.318 +/− 0.005
E. coli strain DPD4655; isobutanol 0.8% (w/v)
  % OD +isobutanol/−isobutanol: 50%
  OD600 (+/− st dev): 0.220 +/− 0.006
E. coli strain DPD4658; isobutanol 0.4% (w/v)
  % OD +isobutanol/−isobutanol: 63%
  OD600 (+/− st dev): 0.259 +/− 0.004
E. coli strain DPD4658; isobutanol 0.8% (w/v)
  % OD +isobutanol/−isobutanol: 42%
  OD600 (+/− st dev): 0.174 +/− 0.011
[4]; PN1310 (vector alone)
  inhibited for growth: 75%
[4]; PN1310 (vector), S36 medium, 30° C, anaerobic
  2 h Δ OD: 0.3
[5]; PN1312 (cfa1), S36 medium, 30° C, anaerobic
  2 h Δ OD: 0.5
[5]; PN1312 (cfa1 overexpression)
  inhibited for growth: 59%
[2]; PN2001, 3% isobutanol
  growth in the presence of isobutanol (FIG. 1A): grew
[2]; isobutanol 2.25% w/v
  PN2001 (cfa1 plasmid) μ: 0.187 h⁻¹
[2]; isobutanol 2.5% w/v
  PN2001 (cfa1 plasmid) μ: 0.119 h⁻¹
[2]; isobutanol 2.75% w/v
  PN2001 (cfa1 plasmid) μ: 0.104 h⁻¹
[2]; isobutanol 3.0% w/v
  PN2001 (cfa1 plasmid) μ: 0.029 h⁻¹
[2]; isobutanol 3.2% w/v
  PN2001 (cfa1 plasmid) μ: 0.00 h⁻¹
[3]; PN2014, 3% isobutanol
  growth in the presence of isobutanol (FIG. 1B): did not grow
[3]; isobutanol 2.25% w/v
  PN2014 (control plasmid) μ: 0.170 h⁻¹
[3]; isobutanol 2.5% w/v
  PN2014 (control plasmid) μ: 0.118 h⁻¹
[3]; isobutanol 2.75% w/v
  PN2014 (control plasmid) μ: 0.037 h⁻¹
[3]; isobutanol 3.0% w/v
  PN2014 (control plasmid) μ: 0.00 h⁻¹
[3]; isobutanol 3.2% w/v
  PN2014 (control plasmid) μ: 0.00 h⁻¹
[6]
  inhibition at 2.25 % strength: 46%
  inhibition at 2.5 % strength: 66%
  inhibition at 2.75 % strength: 70%
  inhibition at 3 % strength: 92%
  inhibition at 3.2 % strength: 100%
[7]
  inhibition at 2.25 % strength: 50%
  inhibition at 2.5 % strength: 66%
  inhibition at 2.75 % strength: 89%
  inhibition at 3 % strength: 100%
  inhibition at 3.2 % strength: 100%
